How the values were obtained:
[1] = biological target: T1, 5HT2C (Homo sapiens, UniProt P28335); assay: R-SAT broad profiling; format: cell-based; parameters: expressed in transfected cells; host or cells: NIH3T3
T1 sequence (P28335 33-458): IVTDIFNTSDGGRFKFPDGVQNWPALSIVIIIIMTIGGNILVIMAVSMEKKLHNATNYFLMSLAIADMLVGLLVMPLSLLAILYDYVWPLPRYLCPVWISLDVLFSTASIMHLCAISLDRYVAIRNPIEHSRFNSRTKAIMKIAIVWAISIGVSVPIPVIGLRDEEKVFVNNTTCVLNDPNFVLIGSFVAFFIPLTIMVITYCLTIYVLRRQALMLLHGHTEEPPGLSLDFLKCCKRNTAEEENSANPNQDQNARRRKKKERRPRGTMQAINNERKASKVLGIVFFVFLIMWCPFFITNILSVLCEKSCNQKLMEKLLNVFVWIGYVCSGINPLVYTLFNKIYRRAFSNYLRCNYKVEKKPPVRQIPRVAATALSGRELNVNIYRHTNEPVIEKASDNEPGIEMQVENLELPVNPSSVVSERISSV
Method: (§1) The functional receptor assay, Receptor Selection and Amplification Technology (R-SAT), was used (with minor modifications from that previously described U.S. Pat. No. 5,707,798) to screen compounds for efficacy at the 5-HT2A receptor. Briefly, NIH3T3 cells were grown in 96 well tissue culture plates to 70-80% confluence. Cells were transfected for 12-16 hours with plasmid DNAs using superfect (Qiagen Inc.) as per manufacture's protocols. R-SAT's were generally performed with 50 ng/well of receptor and 20 ng/well of Beta-galactosidase plasmid DNA. All receptor and G-protein constructs used were in the pSI mammalian expression vector (Promega Inc) as described in U.S. Pat. No. 5,707,798. The 5HT2A receptor gene was amplified by nested PCR from brain cDNA using the oligodeoxynucleotides based on the published sequence (see Saltzman et. al. Biochem. Biophys. Res. Comm. 181:1469-78 (1991)). Large-scale transfections, cells were transfected for 12-16 hours, then trypsinized and frozen in DMSO. Frozen cells were later thawed, plated at 10,000-40,000 cells per well of a 96 well plate that contained drug. With both methods, cells were then grown in a humidified atmosphere with 5% ambient CO2 for five days. Media was then removed from the plates and marker gene activity was measured by the addition of the beta-galactosidase substrate ONPG (in PBS with 5% NP-40). The resulting colorimetric reaction was measured in a spectrophotometric plate reader (Titertek Inc.)at […]. All data were analyzed using the computer program XLFit (IDBSm). Efficacy is the percent maximal repression compared to repression by a control compound (ritanserin in the case of 5HT2A). pIC50 is the negative of the log(IC50), where IC50 is the calculated concentration in Molar that produces 50% maximal repression.
(§2) The R-SAT assay (described above in example 289) was used to investigate the selectivity of 4-(4-Fluoro-benzyl)-3-(4-isobutoxy-benzyl)-8-methyl-1-oxa-3,8-diaza-spiro[4.5]decan-2-one.

[2] = biological target: 5HT1B (Homo sapiens, UniProt P28222); assay: R-SAT broad profiling; format: cell-based; parameters: expressed in transfected cells; host or cells: NIH3T3; conditions: read-out: pEC50 or pIC50 (converted)
Sequence of 5HT1B (P28222 whole entry, species assumed): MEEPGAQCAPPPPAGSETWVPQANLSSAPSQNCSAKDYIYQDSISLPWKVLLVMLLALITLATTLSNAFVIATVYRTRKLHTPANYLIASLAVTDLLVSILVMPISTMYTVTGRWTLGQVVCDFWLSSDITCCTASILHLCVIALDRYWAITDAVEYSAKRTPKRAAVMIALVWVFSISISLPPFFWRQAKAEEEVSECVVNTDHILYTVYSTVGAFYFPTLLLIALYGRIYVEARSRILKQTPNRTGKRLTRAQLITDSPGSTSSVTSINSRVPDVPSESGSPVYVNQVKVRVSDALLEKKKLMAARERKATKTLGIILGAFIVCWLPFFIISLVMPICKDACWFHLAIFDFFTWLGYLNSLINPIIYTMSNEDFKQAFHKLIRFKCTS
Method: as §1, §2

[3] = biological target: D2 (Homo sapiens, UniProt P14416); assay: R-SAT broad profiling; format: cell-based; parameters: expressed in transfected cells; host or cells: NIH3T3; conditions: read-out: pEC50/pIC50 (converted)
Sequence of D2 (P14416 whole entry): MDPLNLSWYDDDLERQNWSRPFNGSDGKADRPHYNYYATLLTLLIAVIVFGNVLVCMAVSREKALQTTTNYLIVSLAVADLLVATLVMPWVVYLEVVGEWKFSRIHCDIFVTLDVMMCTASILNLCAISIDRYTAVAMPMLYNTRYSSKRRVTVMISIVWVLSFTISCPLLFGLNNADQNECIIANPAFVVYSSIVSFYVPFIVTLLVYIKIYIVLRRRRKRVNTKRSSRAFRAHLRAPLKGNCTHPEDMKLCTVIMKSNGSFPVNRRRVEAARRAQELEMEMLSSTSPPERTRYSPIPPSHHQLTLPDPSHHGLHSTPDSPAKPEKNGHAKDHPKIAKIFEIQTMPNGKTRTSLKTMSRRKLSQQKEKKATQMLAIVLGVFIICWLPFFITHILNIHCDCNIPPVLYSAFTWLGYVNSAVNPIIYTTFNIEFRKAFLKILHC
Method: as §1, with “Frozen cells were later thawed, plated at 10,000-40,000 cells per well of a 96 well plate that contained drug. With both methods, cells were then grown in a humidified atmosphere with 5% ambient CO2 for five days.” left out, “Efficacy is the percent maximal repression compared to repression by a control compound (ritanserin in the case of 5HT2A). pIC50 is the negative of the log(IC50), where IC50 is the calculated concentration in Molar that produces 50% maximal repression.” left out

[4] = Plasma levels (LC/MS/MS); format: in vivo, human; conditions: after 13 days; for plasma concentration, Mean: n = 9
Method: Plasma Levels: Blood samples were collected into Vacutainer® (dry sodium heparin, green top tube, 6 mL capacity) on Day −1 and again on Day 14 (pre-dose). The time interval between blood collection and freezing of the plasma was no longer than 45 minutes. Within 45 minutes of collection, the plasma fractions were separated by centrifugation at 3,000 rotations per minutes for 10 minutes. The plasma fractions were divided and transferred into two properly labeled storage tubes and frozen at approximately −70° C. Plasma samples were evaluated for N-(1-methylpiperidin-4-yl)-N-(4-fluorophenylmethyl)-N′-(4-(2-methylpropyloxy)phenylmethyl)carbamide using a validated high performance liquid chromatography/tandem mass spectrometric (LC/MS/MS) assay.

For `CC(C)COc1ccc(CN2C(=O)OC3(CCN(C)CC3)C2Cc2ccc(F)cc2)cc1.Cl` (racemic) [Example 69NLS75, 4-(4-Fluorobenzyl)-3-(4-isobutoxybenzyl)-8-methyl-1-oxa-3,8-diazaspiro[4.5]decan-2-one, hydrochloride], the EC50 ([1]; agonist, read-out: pEC50 or pIC50 (converted)) was greater than 3.16 µM, the efficacy in brackets ([1]; inverse) was 77% and the EC50 ([2]; agonist) was greater than 3.16 µM. It also gave an IC50 ([2]; antagonist) greater than 3.16 µM.

In the case of `COc1ccc(CC(=O)N(Cc2ccc(C)cc2)C2CCN(C)CC2)cc1` [Example 50ELH27, 2-(4-Methoxyphenyl)-N-(4-methylbenzyl)-N-(1-methylpiperidin-4-yl)acetamide], the EC50 ([3]; agonist) is reported as greater than 3.16 µM and the IC50 ([3]; antagonist) is reported as greater than 3.16 µM.

In the case of `CC(C)COc1ccc(CNC(=O)N(Cc2ccc(F)cc2)C2CCN(C)CC2)cc1` [N-(1-methylpiperidin-4-yl)-N-(4-fluorophenylmethyl)-N′-(4-(2-methylpropyloxy)phenylmethyl)carbamide], the “plasma concentration, Maximum” value ([4]; 1 mg once daily) is reported as 2.33 ng/mL, the “plasma concentration, Median” value ([4]; 1 mg once daily) is reported as 1.750 ng/mL and the “plasma concentration, Minimum” value ([4]; 1 mg once daily) is reported as 0.92 ng/mL. The “plasma concentration, Mean” value ([4]; 1 mg once daily) was 1.628 ng/mL, the “plasma concentration, Maximum” value ([4]; 2.5 mg once daily) was 5.55 ng/mL and the “plasma concentration, Median” value ([4]; 2.5 mg once daily) was 3.360 ng/mL. For the same molecule, the “plasma concentration, Minimum” value ([4]; 2.5 mg once daily) was 2.07 ng/mL, the “plasma concentration, Mean” value ([4]; 2.5 mg once daily) was 3.647 ng/mL and the “plasma concentration, Maximum” value ([4]; 5 mg once daily) was 13.00 ng/mL. For the same molecule, the “plasma concentration, Median” value ([4]; 5 mg once daily) was 8.720 ng/mL, the “plasma concentration, Minimum” value ([4]; 5 mg once daily) was 5.91 ng/mL and the “plasma concentration, Mean” value ([4]; 5 mg once daily) was 8.516 ng/mL. For the same molecule, the “plasma concentration, Maximum” value ([4]; 20 mg once daily) was 52.70 ng/mL, the “plasma concentration, Median” value ([4]; 20 mg once daily) was 34.100 ng/mL and the “plasma concentration, Minimum” value ([4]; 20 mg once daily) was 21.90 ng/mL. For the same molecule, the “plasma concentration, Mean” value ([4]; 20 mg once daily) was 35.033 ng/mL.

From US20080051429A1, “USE OF 4-AMINO-PIPERIDINES FOR TREATING SLEEP DISORDERS” (priority 2006, published 2008)
